In US9056843B2, “Trifluoromethyl-oxadiazole derivatives and their use in the treatment of disease” (NOVARTIS AG, priority 2011, dated 2015):
pIC50: −log10 of the molar value.

Experiments:
Format in all cases: biochemical
Human recombinant HDAC4 [1] = biological target: T1, Human recombinant HDAC4 (Homo sapiens (Human), UniProt P56524); test: Test 1: HDAC4 assay (fluorogenic substrate, 10 μM acetyl-Gly-Ala-Lys(trifluoroacetyl)-AMC); settings: Test 1 (values indicated by an asterisk)
Experimental: Test 1: HDAC4 Assay Description
Human recombinant HDAC4 was expressed in full length form (aa 2-1084) in Sf9 insect cells (obtained from ATCC) using baculovirus generated with Bac-to-Bac system (Invitrogen). Test compounds were serially diluted to reach final test concentrations from 0.003 μM to 100 μM. HDAC4 and test compounds were incubated in 25 mM Tris buffer pH 8.0 containing 137 mM NaCl, 2.7 mM KCl, 1 mM MgCl2 and 0.05% (w/v) bovine serum albumine for 2 hours at room temperature in presence of 10 μM of acetyl-Gly-Ala-Lys(E-trifluoroacetyl)-AMC (AMC=7-amino-4-methyl coumarin) in a final volume of 200 μl. Control wells with HDAC4 only (positive control) and without HDAC4 (negative control) were included on the microplate. Bovine trypsin (10 μl of a 0.4 mg/ml solution) was added and the plate incubated for additional 15 minutes at room temperature. The plate was placed in a fluorescence microplate reader, and read at an excitation wavelength of 360 nm and an emission wavelength of 450 nm with a cut-off filter of 435 nm. Fluorescence values for all wells containing HDAC4 (positive control and wells with test compound) were corrected by subtracting negative control fluorescence values, and IC50 values were calculated by fitting the dose-response curves to a 4-parameter logistic function.
HDAC4 IC50 values were obtained using Test 2, except those values indicated by an asterisk which were obtained using Test 1. NT=Not Tested

[2] = biological target: Human recombinant full length HDAC6 (Homo sapiens (Human), UniProt Q9UBN7); test: Test 4: HDAC6 assay; settings: Test 4; substrate 5 μM acetyl-Gly-Ala-Lys(acetyl)-AMC
Method in brief: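 Baculovirus-expressed full-length recombinant human HDAC6 with 5 μM acetyl-Gly-Ala-Lys(acetyl)-AMC substrate, developed with trypsin 15 min at room temperature.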

[3] = biological target: Human recombinant full length HDAC1 (Homo sapiens (Human), UniProt Q13547); test: Test 3: HDAC1 assay; settings: substrate 5 μM acetyl-Gly-Ala-Lys(acetyl)-AMC
Method in brief: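 Baculovirus-expressed full-length human HDAC1 with 5 μM acetyl-Gly-Ala-Lys(acetyl)-AMC substrate, developed with trypsin 15 min at room temperature.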

Human recombinant HDAC4 [4] = biological target: T1, Human recombinant HDAC4; test: Test 2: HDAC4 assay (fluorogenic substrate, 5 μM acetyl-Gly-Ala-Lys(ε-trifluoroacetyl)-AMC); settings: Test 2 (values without asterisk)
Method in brief: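 After the reaction, bovine trypsin (300 nM solution) was added for 15 min at RT to develop the signal; fluorescence read at 360/450 nm. No-enzyme background subtracted; IC50 from 4-parameter logistic fit of dose-response curves.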

T1 sequence (P56524 2-1084): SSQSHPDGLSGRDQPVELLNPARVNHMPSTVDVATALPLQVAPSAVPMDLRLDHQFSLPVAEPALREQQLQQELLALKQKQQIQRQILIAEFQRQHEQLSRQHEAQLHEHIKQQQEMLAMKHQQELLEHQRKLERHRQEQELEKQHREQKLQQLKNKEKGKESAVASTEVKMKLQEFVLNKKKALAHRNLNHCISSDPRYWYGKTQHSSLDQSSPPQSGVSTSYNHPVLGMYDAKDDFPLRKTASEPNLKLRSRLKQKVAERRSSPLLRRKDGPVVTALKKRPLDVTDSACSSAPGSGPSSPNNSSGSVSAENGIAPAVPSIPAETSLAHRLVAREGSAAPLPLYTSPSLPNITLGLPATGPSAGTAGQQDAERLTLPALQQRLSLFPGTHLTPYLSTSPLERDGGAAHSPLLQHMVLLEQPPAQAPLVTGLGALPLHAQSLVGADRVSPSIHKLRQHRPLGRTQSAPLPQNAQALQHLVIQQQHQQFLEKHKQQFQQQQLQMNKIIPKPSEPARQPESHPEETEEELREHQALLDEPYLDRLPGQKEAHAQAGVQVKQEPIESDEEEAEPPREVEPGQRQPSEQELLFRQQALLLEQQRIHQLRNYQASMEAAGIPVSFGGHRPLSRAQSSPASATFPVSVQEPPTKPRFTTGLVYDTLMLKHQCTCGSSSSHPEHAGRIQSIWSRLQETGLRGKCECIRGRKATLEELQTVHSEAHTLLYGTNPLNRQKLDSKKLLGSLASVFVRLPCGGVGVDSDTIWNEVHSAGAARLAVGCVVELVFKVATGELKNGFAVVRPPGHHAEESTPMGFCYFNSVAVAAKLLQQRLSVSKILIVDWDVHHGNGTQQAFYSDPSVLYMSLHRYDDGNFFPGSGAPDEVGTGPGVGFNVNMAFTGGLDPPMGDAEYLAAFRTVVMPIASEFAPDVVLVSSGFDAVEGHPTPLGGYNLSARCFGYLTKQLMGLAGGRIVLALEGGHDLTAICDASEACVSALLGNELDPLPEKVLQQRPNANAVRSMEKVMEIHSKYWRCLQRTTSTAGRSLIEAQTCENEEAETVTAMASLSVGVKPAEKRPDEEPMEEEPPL
Chain of Human recombinant full length HDAC6 (Q9UBN7 whole entry): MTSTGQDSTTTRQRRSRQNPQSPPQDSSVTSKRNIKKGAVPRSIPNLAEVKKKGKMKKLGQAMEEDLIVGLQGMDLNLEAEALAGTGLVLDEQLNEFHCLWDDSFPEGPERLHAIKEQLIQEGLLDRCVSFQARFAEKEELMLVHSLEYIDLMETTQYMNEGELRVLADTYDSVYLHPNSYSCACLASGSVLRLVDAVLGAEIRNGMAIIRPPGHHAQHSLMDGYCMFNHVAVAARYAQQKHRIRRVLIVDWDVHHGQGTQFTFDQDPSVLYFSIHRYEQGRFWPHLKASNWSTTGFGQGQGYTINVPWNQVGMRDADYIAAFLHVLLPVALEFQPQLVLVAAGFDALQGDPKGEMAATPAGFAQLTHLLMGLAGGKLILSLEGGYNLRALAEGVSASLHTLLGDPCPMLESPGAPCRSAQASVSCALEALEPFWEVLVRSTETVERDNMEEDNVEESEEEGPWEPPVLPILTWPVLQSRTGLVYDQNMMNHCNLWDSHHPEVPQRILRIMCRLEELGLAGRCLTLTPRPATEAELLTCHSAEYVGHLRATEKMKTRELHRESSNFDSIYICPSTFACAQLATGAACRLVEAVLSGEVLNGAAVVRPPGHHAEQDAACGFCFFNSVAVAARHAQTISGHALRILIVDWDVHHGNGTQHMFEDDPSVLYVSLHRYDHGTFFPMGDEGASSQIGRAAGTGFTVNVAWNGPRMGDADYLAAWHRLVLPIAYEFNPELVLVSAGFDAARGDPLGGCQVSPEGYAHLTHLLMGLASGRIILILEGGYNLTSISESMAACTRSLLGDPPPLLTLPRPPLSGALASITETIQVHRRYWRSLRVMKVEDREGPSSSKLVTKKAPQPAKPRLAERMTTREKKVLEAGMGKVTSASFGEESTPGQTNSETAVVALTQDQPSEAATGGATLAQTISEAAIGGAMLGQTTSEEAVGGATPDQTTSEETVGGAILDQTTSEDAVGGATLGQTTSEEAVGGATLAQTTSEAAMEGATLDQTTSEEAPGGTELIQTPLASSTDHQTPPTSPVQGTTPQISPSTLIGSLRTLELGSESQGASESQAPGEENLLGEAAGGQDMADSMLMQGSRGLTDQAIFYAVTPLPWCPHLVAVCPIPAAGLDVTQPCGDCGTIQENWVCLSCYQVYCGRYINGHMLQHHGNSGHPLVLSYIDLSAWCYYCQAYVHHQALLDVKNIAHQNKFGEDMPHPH
Chain of Human recombinant full length HDAC1 (Q13547 whole entry): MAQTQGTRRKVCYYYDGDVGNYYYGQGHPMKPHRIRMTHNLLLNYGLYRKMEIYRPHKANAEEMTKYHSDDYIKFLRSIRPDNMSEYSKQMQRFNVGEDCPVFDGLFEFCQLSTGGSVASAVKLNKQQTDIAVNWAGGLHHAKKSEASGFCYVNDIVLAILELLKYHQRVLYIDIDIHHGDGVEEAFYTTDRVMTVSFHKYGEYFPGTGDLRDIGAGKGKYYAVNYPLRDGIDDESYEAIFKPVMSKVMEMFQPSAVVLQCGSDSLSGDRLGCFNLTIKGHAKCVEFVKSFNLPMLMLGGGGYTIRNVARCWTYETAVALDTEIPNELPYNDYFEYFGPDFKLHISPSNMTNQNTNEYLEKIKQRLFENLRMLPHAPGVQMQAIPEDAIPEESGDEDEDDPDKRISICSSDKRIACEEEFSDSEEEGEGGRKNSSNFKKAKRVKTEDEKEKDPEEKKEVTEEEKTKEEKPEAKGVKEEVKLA

Compound | pIC50 (Human recombinant HDAC4 [1]) | pIC50 [2] | pIC50 [3] | pIC50 (Human recombinant HDAC4 [4])
O=C(NC1CC1)c1ccc(-c2noc(C(F)(F)F)n2)cc1 [Example 19, N-cyclopropyl-4-(5-(trifluoromethyl)-1,2,4-oxadiazol-3-yl)benzamide] | 6.92 |  |  | 
O=S(=O)(Nc1cccnc1)c1ccc(-c2noc(C(F)(F)F)n2)cc1 [Example 100, N-(ppyridin-3-yl)-4-(5-(trifluoromethyl)-1,2,4-oxadiazol-3-yl)benzenesulfonamide] | 7.15 |  |  | 
CN(C)c1ccc(NC(=O)c2ccc(-c3noc(C(F)(F)F)n3)cc2)cc1 [Example 41, N-(4-(dimethylamino)phenyl)-4-(5-(trifluoromethyl)-1,2,4-oxadiazol-3-yl)benzamide] | 5.82 |  |  | 
Cc1cc(NC(=O)c2ccc(-c3noc(C(F)(F)F)n3)cc2)ccn1 [Example 70, N-(2-methylpyridin-4-yl)-4-(5-(trifluoromethyl)-1,2,4-oxadiazol-3-yl)benzamide] | 7.05 |  |  | 
O=S(=O)(Nc1cccc(F)c1)c1ccc(-c2noc(C(F)(F)F)n2)cc1 [Example 106, N-(3-fluorophenyl)-4-(5-(trifluoromethyl)-1,2,4-oxadiazol-3-yl)benzenesulfonamide] | 6.70 |  |  | 
CC(C)(C)OC(=O)N1CCC(NC(=O)c2ccc(-c3noc(C(F)(F)F)n3)cc2)CC1 [Example 59, 4-[4-(5-trifluoromethyl-[1,2,4]oxadiazol-3-yl)-benzoylamino]-piperidine-1-carboxylic acid tert-butyl ester] |  | < 5.00 | < 5.00 | 5.85
Cc1cccc(NS(=O)(=O)c2ccc(-c3noc(C(F)(F)F)n3)cc2)c1 [Example 105, N-m-tolyl-4-(5-(trifluoromethyl)-1,2,4-oxadiazol-3-yl)benzenesulfonamide] |  | 6.33 | 5.44 | 6.57
O=C(Nc1ccnc(F)c1)c1ccc(-c2noc(C(F)(F)F)n2)cc1 [Example 71, N-(2-fluoropyridin-4-yl)-4-(5-(trifluoromethyl)-1,2,4-oxadiazol-3-yl)benzamide] |  | < 5.00 | < 5.00 | 6.04
O=C(NC1CCCCC1)c1ccc(-c2noc(C(F)(F)F)n2)cc1 [Example 34, N-cyclohexyl-4-(5-(trifluoromethyl)-1,2,4-oxadiazol-3-yl)benzamide] |  | < 5.00 | < 5.00 | 6.12
O=C(Nc1ccnc(Cl)c1)c1ccc(-c2noc(C(F)(F)F)n2)cc1 [Example 75, N-(2-chloropyridin-4-yl)-4-(5-(trifluoromethyl)-1,2,4-oxadiazol-3-yl)benzamide] |  | < 5.00 | < 5.00 | 6.80
CN(C)C1CCN(C(=O)c2ccc(-c3noc(C(F)(F)F)n3)cc2)CC1 [Example 39, (4-(dimethylamino)piperidin-1-yl)(4-(5-(trifluoromethyl)-1,2,4-oxadiazol-3-yl)phenyl)methanone] |  | < 5.00 | < 5.00 | 5.92
O=S(=O)(Nc1ccccc1Cl)c1ccc(-c2noc(C(F)(F)F)n2)cc1 [Example 104, N-(2-chlorophenyl)-4-(5-(trifluoromethyl)-1,2,4-oxadiazol-3-yl)benzenesulfonamide] |  | 6.11 | < 5.00 | 6.08
CC(C)(C)OC(=O)N1CCC(NC(=O)c2ccc(-c3noc(C(F)(F)F)n3)cc2)C1 (stereo not drawn) [Example 66, Tert-butyl 3-(4-(5-(trifluoromethyl)-1,2,4-oxadiazol-3-yl)benzamido)pyrrolidine-1-carboxylate] |  | 5.24 | < 5.00 | 6.48

Results, then the compound that gave them:

pIC50 (Human recombinant HDAC4 [1]) | pIC50 [2] | pIC50 [3] | pIC50 (Human recombinant HDAC4 [4]) | Compound
7.32 |  |  |  | CCN(CC)C[C@H](C)NC(=O)c1ccc(-c2noc(C(F)(F)F)n2)cc1 [Example 133, (S)—N-(1-(diethylamino)propan-2-yl)-4-(5-(trifluoromethyl)-1,2,4-oxadiazol-3-yl)benzamide]
 | 5.35 | < 5.00 | 7.59 | C[C@H](CN1CCCC1)NC(=O)c1ccc(-c2noc(C(F)(F)F)n2)cc1F [Example 128, (R)-2-fluoro-N-(1-(pyrrolidin-1-yl)propan-2-yl)-4-(5-(trifluoromethyl)-1,2,4-oxadiazol-3-yl)benzamide]
 | < 5.00 | < 5.00 | 6.44 | CN(C)C(=O)c1ccc(-c2noc(C(F)(F)F)n2)cc1 [Example 1, N,N-dimethyl-4-(5-(trifluoromethyl)-1,2,4-oxadiazol-3-yl)benzamide]
 | 5.49 | < 5.00 | 6.42 | C[C@H](CN1CCOCC1)NC(=O)c1ccc(-c2noc(C(F)(F)F)n2)cc1F [Example 148, (R)-2-fluoro-N-(1-morpholinopropan-2-yl)-4-(5-(trifluoromethyl)-1,2,4-oxadiazol-3-yl)benzamide]
 | < 5.00 | < 5.00 | 6.00 | CC(C)NC(=O)c1ccc(-c2noc(C(F)(F)F)n2)cc1 [Example 20, N-isopropyl-4-(5-(trifluoromethyl)-1,2,4-oxadiazol-3-yl)benzamide]
 | 5.02 | 5.40 | 9.00 | CCCN(C)C[C@@H](C)NC(=O)c1ccc(-c2noc(C(F)(F)F)n2)cc1 [Example 139, (R)—N-(1-(methyl(propyl)amino)propan-2-yl)-4-(5-(trifluoromethyl)-1,2,4-oxadiazol-3-yl)benzamide]
 | 5.00 | < 5.00 | 7.05 | CC(CNC(=O)c1ccc(-c2noc(C(F)(F)F)n2)cc1)N(C)C (stereo not drawn) [Example 51, N-(2-(dimethylamino)propyl)-4-(5-(trifluoromethyl)-1,2,4-oxadiazol-3-yl)benzamide]
 | 5.26 | < 5.00 | 6.19 | CC(C)CC(CO)NC(=O)c1ccc(-c2noc(C(F)(F)F)n2)cc1 (stereo not drawn) [Example 58, N-(1-hydroxy-4-methylpentan-2-yl)-4-(5-(trifluoromethyl)-1,2,4-oxadiazol-3-yl)benzamide]
 | < 5.00 | < 5.00 | 6.28 | CC(CN(C)C)N(C)C(=O)c1ccc(-c2noc(C(F)(F)F)n2)cc1 (stereo not drawn) [Example 94, N-(1-(dimethylamino)propan-2-yl)-N-methyl-4-(5-(trifluoromethyl)-1,2,4-oxadiazol-3-yl)benzamide]
 | 5.33 | < 5.00 | 6.66 | CN(C)C[C@@H](Cc1ccccc1)NC(=O)c1ccc(-c2noc(C(F)(F)F)n2)cc1F [Example 118, (R)—N-(1-(dimethylamino)-3-phenylpropan-2-yl)-2-fluoro-4-(5-(trifluoromethyl)-1,2,4-oxadiazol-3-yl)benzamide]
 | 5.31 | < 5.00 | 6.72 | CN(C)C[C@H](Cc1ccccc1)NC(=O)c1ccc(-c2noc(C(F)(F)F)n2)cc1 [Example 93, (S)—N-(1-(dimethylamino)-3-phenylpropan-2-yl)-4-(5-(trifluoromethyl)-1,2,4-oxadiazol-3-yl)benzamide]
 | 5.41 | < 5.00 | 8.05 | CCN(CC)C[C@@H](C)NC(=O)c1ccc(-c2noc(C(F)(F)F)n2)cc1F [Example 126, (R)—N-(1-(diethylamino)propan-2-yl)-2-fluoro-4-(5-(trifluoromethyl)-1,2,4-oxadiazol-3-yl)benzamide]
